Assay results published in patent publication US12441719B2, “Inhibitors of SARM1” (Disarm Therapeutics, Inc., priority 2019, dated 2025).

target: T1, SARM1 (Homo sapiens, UniProt Q6SZW1); test: ARM-SAM-TIR SARM1 IC50 assay (NADase activity, NAD+ cleavage); type: biochemical; conditions: ARM-SAM-TIR lysate 5 μg/mL from NRK1-HEK293T cells; 2 h pre-incubation with compound, 5 μM NAD+, 2 hr room temperature; NAD+ and ADPR by RapidFire mass spectrometry; read-out: SARM1 IC50
T1 construct: AviTag […]; made in house; host or cells: NRK1-HEK293T cells, transiently transfected; the clarified sonicated lysate was used without purification
T1 sequence (Q6SZW1 with tags, fused parts or gaps): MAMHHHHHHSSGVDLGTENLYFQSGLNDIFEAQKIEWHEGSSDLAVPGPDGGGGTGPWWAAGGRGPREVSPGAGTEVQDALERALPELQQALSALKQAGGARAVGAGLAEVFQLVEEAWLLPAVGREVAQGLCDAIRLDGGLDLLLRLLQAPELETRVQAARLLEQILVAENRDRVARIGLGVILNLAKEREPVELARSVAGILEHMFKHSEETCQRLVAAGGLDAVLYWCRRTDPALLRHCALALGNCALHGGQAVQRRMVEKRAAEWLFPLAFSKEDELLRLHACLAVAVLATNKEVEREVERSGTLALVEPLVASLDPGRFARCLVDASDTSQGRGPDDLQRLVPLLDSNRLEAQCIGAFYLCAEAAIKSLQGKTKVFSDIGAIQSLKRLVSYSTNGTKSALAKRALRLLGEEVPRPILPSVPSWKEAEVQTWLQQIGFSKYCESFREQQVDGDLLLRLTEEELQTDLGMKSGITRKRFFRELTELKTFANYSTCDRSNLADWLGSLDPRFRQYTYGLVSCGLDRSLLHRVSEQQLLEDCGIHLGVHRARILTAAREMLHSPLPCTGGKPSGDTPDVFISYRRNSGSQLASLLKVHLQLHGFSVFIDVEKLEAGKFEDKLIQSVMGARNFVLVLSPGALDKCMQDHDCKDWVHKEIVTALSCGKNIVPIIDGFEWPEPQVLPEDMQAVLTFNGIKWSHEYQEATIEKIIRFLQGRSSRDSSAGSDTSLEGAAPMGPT
From the text: This Example describes an assay of ARM-SAM-TTR NADase activity and use of this assay to measure the efficacy of compounds of Formula I or Formula II to block SARM1 mediated NAD+ cleavage. This assay is optimized in such a way as to characterize the efficacy of the compounds in Formula I or Formula II to inhibit SARM1 activity and to calculate an IC50 value for each compound. This assay makes use of full length SARI, which encompasses the ARM, SAM and TTR domains.
Preparation of ARM-SAM-TIR Lysate (STL)
NRK1-HEK293T cells were seeded onto 150 cm^2 plates at 20×10^6 cells per plate. The next day, the cells were transfected with 15 μg ARM-SAM-TIR expression plasmid, SEQ ID NO: 1.
The cultures were supplemented with 1 mM NR at time of transfection to minimize toxicity from ARM-SAM-TIR overexpression. Forty-eight hours after transfection, cells were harvested, pelleted by centrifugation at 1,000 rpm (Sorvall ST 16R centrifuge, Thermo Fisher), and washed once with cold PBS (0.01 M phosphate buffered saline NaCl 0.138 M; KCl 0.0027 M; pH 7.4). The cells were resuspended in PBS with protease inhibitors (cOmplete™ protease inhibitor cocktail, Roche product #11873580001) and cell lysates were prepared by sonication (Branson Sonifer 450, output=3, 20 episodes of stroke). The lysates were centrifuged (12,000×g for 10 min at 4° C.) to remove cell debris and the supernatants (containing ARM-SAM-TIR protein) were stored at −80° C. for later use in the in vitro ARM-SAM-TIR NADase assay (see below). Protein concentration was determined by the Bicinchoninic (BCA) method and used to normalize lysate concentrations.
ARM-SAM-TIR IC50 Assay of Formula I or Formula II Compounds.
The enzymatic assay was performed in a 384-well polypropylene plate in Dulbecco's PBS buffer in a final assay volume of 20 μL. ARM-SAM-TIR lysate with a final concentration of 5 μg/mL was pre-incubated with the respective compound at 1% DMSO final assay concentration over 2 h at room temperature. The reaction was initiated by addition of 5 μM final assay concentration of NAD+ as substrate. After a 2 hr room temperature incubation, the reaction was terminated with 40 μL of stop solution of 7.5% trichloroactetic acid in acetonitrile. The NAD+ and ADPR concentrations were analyzed by a RapidFire High Throughput Mass Spectrometry System (Agilent Technologies, Santa Clara, CA) using an API4000 triple quadrupole mass spectrometer (AB Sciex Framingham, MA).

Structure (SMILES) | IC50 [µM]
C[C@@H]1CCCN(c2cc(C#N)c3cc(Cl)ccc3n2)C1 [Example 62] | < 5
N#Cc1cc(N2CCCCC2)nc2ccc(Cl)cc12 [Example 4] | < 5
CO[C@@H]1CCCN(c2cc(C#N)c3cc(Cl)ccc3n2)C1 [Example 60] | < 5
N#Cc1cc(N2CCN(c3ncc[nH]3)CC2)nc2ccc(Cl)cc12 [Example 43] | 15 to 30
N#Cc1cc(NCC2CC2)nc2ccc(Cl)cc12 [Example 13] | < 5
CC1CC(CNc2cc(C#N)c3cc(Cl)ccc3n2)CCO1 (stereo not drawn) [Example 36] | < 5
N#Cc1cc(N2CCCCC2)nc2cc(Cl)ccc12 [Example 26] | < 5
CS(=O)(=O)C1CCCN(c2cc(C#N)c3cc(Cl)ccc3n2)C1 (stereo not drawn) [Example 59] | < 5
CN(C)c1cc(C#N)c2cc(F)ccc2n1 [Example 25] | 5 to 15
N#Cc1cc(N2CCCC2)nc2ccc(Cl)cc12 [Example 10] | < 5
CN(C)c1cc(C#N)c2cc(Br)ccc2n1 [Example 22] | < 5
N#Cc1cc(NC2CCCCNC2=O)nc2ccc(Cl)cc12 (stereo not drawn) [Example 31] | < 5
CO[C@@H]1CCN(c2cc(C#N)c3cc(Cl)ccc3n2)C1 [Example 48] | < 5
Cc1ccc2nc(N3CCCCC3)cc(C#N)c2c1 [Example 18] | 5 to 15
N#Cc1cc(N2CC[C@H](O)C2)nc2ccc(Cl)cc12 [Example 12] | < 5
CN1CCC(Nc2cc(C#N)c3cc(Cl)ccc3n2)C1=O (stereo not drawn) [Example 46] | < 5

Structure (SMILES) | IC50 [µM]
CO[C@H]1CCCN(c2cc(C#N)c3cc(Cl)ccc3n2)C1 [Example 61] | < 5
CNC(=O)C(CO)Nc1cc(C#N)c2cc(Cl)ccc2n1 (stereo not drawn) [Example 39] | > 30
N#Cc1cc(N2CC[C@@H](O)C2)nc2ccc(Cl)cc12 [Example 11] | < 5
Cn1c(CNc2cc(C#N)c3cc(Cl)ccc3n2)nc2cccnc21 [Example 32] | > 30
CO[C@H]1CCN(c2cc(C#N)c3cc(Cl)ccc3n2)C1 [Example 49] | < 5
OCCNC1CCN(c2ccc3cc(Cl)ccc3n2)CC1 [Example 2] | > 30
N#Cc1cc(N2CCC(N)CC2)nc2cc(Cl)ccc12 [Example 64] | < 5
N#Cc1cc(N2CC(CO)C2)nc2ccc(Cl)cc12 [Example 34] | 5 to 15
N#Cc1cc(NCc2ccccn2)nc2ccc(Cl)cc12 [Example 42] | < 5
CN(C)c1cc(C#N)c2cc(Cl)ccc2n1 [Example 5] | < 5
N#Cc1cc(N2CCC(N)CC2)nc2ccc(Br)cc12 [Example 20] | < 5
N#Cc1cc(N2CCC(N)CC2)nc2ccc(Cl)cc12 [Example 3] | 5 to 15
N#Cc1cc(N2CCCCC2)nc2ccc(F)cc12 [Example 24] | < 5
COC1CCN(c2cc(C#N)c3cc(Cl)ccc3n2)CC1 [Example 54] | < 5
NC(=O)c1cc(N2CCC(NCCO)CC2)nc2ccc(Cl)cc12 [Example 6] | > 30

Now from value to molecule:

IC50 [µM] | Structure (SMILES)
15 to 30 | N#Cc1cc(N)nc2ccc(Cl)cc12 [Example 70]
< 5 | N#Cc1cc(N2CCC[C@H](C(=O)N3CCOCC3)C2)nc2ccc(Br)cc12 [Example 101]
< 5 | C#CCCC1(CCNC2CCN(c3cc(C#N)c4cc(Cl)ccc4n3)CC2)N=N1 [Example 88]
< 5 | N#Cc1cc(N2CCSCC2)nc2ccc(Cl)cc12 [Example 92]
< 5 | N#Cc1cc(N2CCC[C@H](NC(=O)c3cnccn3)C2)nc2ccc(Br)cc12 [Example 133]
< 5 | Cc1n[nH]cc1C(=O)N[C@H]1CCCN(c2cc(C#N)c3cc(Br)ccc3n2)C1 [Example 129]
< 5 | N#Cc1cc(N2CCC(C(=O)N3CCOCC3)CC2)nc2ccc(Br)cc12 [Example 104]
< 5 | N#Cc1cc(N2CC[C@H](N)C2)nc2ccc(Cl)cc12 [Example 66]
< 5 | N#Cc1cc(N2CCC[C@H](NC(=O)c3c[nH]cn3)C2)nc2ccc(Br)cc12 [Example 136]
< 5 | N#Cc1cc(N2CCC(C(N)=O)C2)nc2ccc(Cl)cc12 (stereo not drawn) [Example 67]
< 5 | C[C@@H]1CCC[C@H](C)N1c1cc(C#N)c2cc(Br)ccc2n1 [Example 96]
5 to 15 | CNC(=O)C1CCN(c2cc(C#N)c3cc(Cl)ccc3n2)C1 (stereo not drawn) [Example 68]
< 5 | N#Cc1cc(N2CCC[C@H](C(=O)NCC3CC3)C2)nc2ccc(Br)cc12 [Example 103]
< 5 | N#Cc1cc(N2CCC(NCc3ccccc3)CC2)nc2ccc(Br)cc12 [Example 113]
< 5 | N#Cc1cc(N2CCCC(c3ncccn3)C2)nc2ccc(Br)cc12 (stereo not drawn) [Example 152]
< 5 | CC(C)(C)OC(=O)NC1CCN(c2cc(C#N)c3cc(C4=CCOC4)ccc3n2)CC1 [Example 93]
< 5 | N#Cc1cc(N2CCCC[C@H]2CO)nc2ccc(Cl)cc12 [Example 95]
< 5 | Cc1cncnc1C(=O)N[C@H]1CCCN(c2cc(C#N)c3cc(Br)ccc3n2)C1 [Example 135]
< 5 | N#Cc1cc(N2CCCC(n3cccn3)C2)nc2ccc(Br)cc12 (stereo not drawn) [Example 153]

IC50 [µM] | Structure (SMILES)
< 5 | Cn1cnc(C(=O)N[C@H]2CCCN(c3cc(C#N)c4cc(Br)ccc4n3)C2)c1 [Example 130]
< 5 | N#Cc1cc(N2CCC[C@H](N3CCCC3=O)C2)nc2ccc(Br)cc12 [Example 109]
< 5 | N#Cc1cc(N2CCCC2)nc2cc(F)c(Cl)cc12 [Example 71]
< 5 | CC1(O)CCCN(c2cc(C#N)c3cc(Br)ccc3n2)C1 (stereo not drawn) [Example 97]
< 5 | CNC(=O)[C@H]1CCCN(c2cc(C#N)c3cc(Cl)ccc3n2)C1 [Example 79]
< 5 | N#Cc1cc(N2CCC[C@H](NCc3ccccc3)C2)nc2ccc(Br)cc12 [Example 107]
< 5 | N#Cc1cc(N2CCCCC2C2CC2)nc2ccc(Cl)cc12 (stereo not drawn) [Example 98]
< 5 | N#Cc1cc(N2CCC[C@H](O)C2)nc2ccc(Cl)cc12 [Example 77]
< 5 | N#Cc1cc(N2CCC[C@H](NCC3CC3)C2)nc2ccc(Br)cc12 [Example 108]
< 5 | N#Cc1cc(N2CC[C@@H](N)C2)nc2ccc(Cl)cc12 [Example 65]
< 5 | N#Cc1c(Cl)c(N2CC[C@@H](O)C2)nc2ccc(Cl)cc12 [Example 90]
< 5 | N#Cc1cc(N2CCC[C@H](NC(=O)c3cncnc3)C2)nc2ccc(Br)cc12 [Example 139]
< 5 | N#Cc1cc(N2CCOCC2)nc2ccc(Cl)cc12 [Example 76]
< 5 | CN(C)C(=O)C1CCN(c2cc(C#N)c3cc(Cl)ccc3n2)C1 (stereo not drawn) [Example 69]
< 5 | CC(=O)N[C@]1(C)CCCN(c2cc(C#N)c3cc(Br)ccc3n2)C1 [Example 121]
< 5 | COCCN(C)C(=O)C1CCN(c2cc(C#N)c3cc(Br)ccc3n2)CC1 [Example 123]
< 5 | N#Cc1cc(N2CCC(NS(N)(=O)=O)CC2)nc2ccc(Br)cc12 [Example 132]
< 5 | N#Cc1cc(N2CCCCC2)nc2cc(F)c(Cl)cc12 [Example 89]
< 5 | N#Cc1cc(N2CCC[C@H](NC(=O)N3CCOCC3)C2)nc2ccc(Br)cc12 [Example 137]
